Laboratory results reported in ChEMBL document CHEMBL4842359, “1,3-Diarylpyrazolyl-acylsulfonamides as Potent Anti-tuberculosis Agents Targeting Cell Wall Biosynthesis in Mycobacterium tuberculosis” (J Med Chem, 2021).
≈ marks a conversion by molar mass, not a printed value.

What was measured:
[1] = Thermodynamic solubility of compound at pH 7.4 aqueous phosphate buffer
[2] = system: Mycobacterium tuberculosis; test: microbe, parasite or virus in culture; conditions: H37Rv, 336 h
Description: Antimycobacterial activity against Mycobacterium tuberculosis H37Rv in presence of middlebrook 7H9/glucose/BSA/tyloxapol medium measured after 14 days by bioluminescence reporter assay

[3] = Lipophilicity, logD of the compound at pH 7.4 by HPLC-DAD analysis; assay type: physicochemical; conditions: buffer
[4] = Metabolic stability in human liver microsomes assessed as compound remaining at 1 uM by LC-MS/MS analysis; assay type: ADME, Microsome; conditions: microsomes, 1 µM
[5] = Metabolic stability in rat liver microsomes assessed as compound remaining at 1 uM by LC-MS/MS analysis; assay type: ADME, Microsome; conditions: microsomes, 1 µM
[6] = Metabolic stability in mouse liver microsomes assessed as compound remaining at 1 uM by LC-MS/MS analysis; assay type: ADME, Microsome; conditions: microsomes, 1 µM
[7] = Plasma protein binding in human assessed as unbound fraction at 5 uM by LC-MS/MS analysis; assay type: ADME, cell-free; conditions: 5 µM
[8] = Terminal half life in iv dosed C57BL/6 mouse measured up to 24 hrs by LC-MS/MS analysis; assay type: ADME, organism-based; conditions: mouse, in vivo, 24 h
[9] = Volume of distribution in iv dosed C57BL/6 mouse measured up to 24 hrs by LC-MS/MS analysis; assay type: ADME, organism-based; conditions: mouse, in vivo, 24 h
[10] = Unbound clearance in iv dosed C57BL/6 mouse measured up to 24 hrs by LC-MS/MS analysis; assay type: ADME, organism-based; conditions: in vivo
[11] = AUC (0 to t) in iv dosed C57BL/6 mouse measured up to 24 hrs by LC-MS/MS analysis; assay type: ADME, organism-based; parameters: time <=24; conditions: in vivo
[12] = system: Mycobacterium tuberculosis; test: microbe, parasite or virus in culture; conditions: H37RvMA, 336 h
Description: Antimycobacterial activity against Mycobacterium tuberculosis H37RvMA in presence of middlebrook 7H9/glucose/BSA/tyloxapol medium measured for 2 weeks by bioluminescence reporter assay

Row | SMILES | solubility thermodynamic [1] | MIC [2] | also measured
1 | CS(=O)(=O)NC(=O)CCc1cn(C2CCCCC2)nc1-c1ccc(Cl)cc1 | 200 µM (≈ 82 µg/mL) | > 50 µM | –
2 | O=C1NC(=O)C(Cc2cn(-c3ccc(Cl)cc3)nc2-c2ccc(Cl)cc2)C(=O)N1 | – | > 50 µM | –
3 | CS(=O)(=O)NC(=O)CCc1oc(-c2ccc(Cl)cc2)nc1-c1ccc(Cl)cc1 | 200 µM (≈ 87.9 µg/mL) | 37 µM (≈ 16.3 µg/mL) | –
4 | CS(=O)(=O)NC(=O)CCc1cn(-c2ccc(Cl)cc2)nc1-c1ccccc1Cl | 90 µM (≈ 39.5 µg/mL) | > 50 µM | –
5 | CS(=O)(=O)NC(=O)CCc1cn(-c2ccc(Br)cc2)nc1-c1cccnc1 | 200 µM (≈ 89.9 µg/mL) | 6.25 µM (≈ 2.81 µg/mL) | logD [3]: 0.84; Stabilty [4]: 37%; Stabilty [5]: 95%; Stabilty [6]: 94%; Fu [7]: 0.022 fraction; beta t1/2 [8]: 1.7 h; Vd [9]: 28.1 L/kg; CL free [10]: 8091 mL/min/kg; AUCt [11]: 31 µmol·min/L
6 | CS(=O)(=O)NC(=O)CCc1cn(-c2ccc(Br)cc2)nc1C1CCCCC1 | 60 µM (≈ 27.3 µg/mL) | 9.4 µM (≈ 4.27 µg/mL) | –
7 | CS(=O)(=O)NC(=O)CCc1cn(-c2ccc(Br)cc2)nc1-c1cccc(Cl)c1 | 165 µM (≈ 79.7 µg/mL) | – | –
8 | CS(=O)(=O)NC(=O)CCc1cn(-c2ccccc2Br)nc1-c1ccc(Cl)cc1 | 165 µM (≈ 79.7 µg/mL) | > 50 µM | –
9 | CS(=O)(=O)NC(=O)CCc1cc(-c2ccc(Br)cc2)nn1-c1ccc(Cl)cc1 | 200 µM (≈ 96.6 µg/mL) | 6.25 µM (≈ 3.02 µg/mL) | logD [3]: 2.1; Stabilty [4]: > 99%; Stabilty [5]: 87%; Stabilty [6]: 91%; Fu [7]: 0.01 fraction; beta t1/2 [8]: 3.6 h; Vd [9]: 1 L/kg; CL free [10]: 313 mL/min/kg; AUCt [11]: 1359 µmol·min/L
10 | CS(=O)(=O)NC(=O)C1CC1c1cn(-c2ccc(Br)cc2)nc1-c1ccncc1 (configuration not stated) | 155 µM (≈ 71.5 µg/mL) | 12.5 µM (≈ 5.77 µg/mL) | –
11 | O=C(CCc1cn(-c2ccc(Br)cc2)nc1-c1ccc(Cl)cc1)NS(=O)(=O)C1CC1 | 5 µM (≈ 2.54 µg/mL) | > 50 µM | –
12 | CC(=O)NS(=O)(=O)CCc1cn(-c2ccc(Br)cc2)nc1-c1ccc(Cl)cc1 | 165 µM (≈ 79.7 µg/mL) | > 50 µM | –
13 | CS(=O)(=O)NC1=NOC(c2cn(-c3ccc(Cl)cc3)nc2-c2ccc(Cl)cc2)C1 (configuration not stated) | 175 µM (≈ 79 µg/mL) | 25 µM (≈ 11.3 µg/mL) | –
14 | CS(=O)(=O)NC(=O)CCc1cn(-c2ccc(F)cc2)nc1-c1ccc(Cl)cc1 | 25 µM (≈ 10.5 µg/mL) | 37 µM (≈ 15.6 µg/mL) | –
15 | CS(=O)(=O)NC(=O)CCc1sc(-c2ccc(Cl)cc2)nc1-c1ccc(Cl)cc1 | 90 µM (≈ 41 µg/mL) | 19 µM (≈ 8.65 µg/mL) | –
16 | CS(=O)(=O)NC(=O)CCc1cn(-c2ccc(Br)cc2)nc1C1CCNCC1 | 196 µM (≈ 89.3 µg/mL) | > 50 µM | –
17 | CS(=O)(=O)NC(=O)Cc1cn(-c2ccc(Br)cc2)nc1-c1ccc(Cl)cc1 | – | > 50 µM | –
18 | CS(=O)(=O)NC(=O)CCc1cn(-c2ccc(Br)cc2)nc1-c1ccc(N)cc1 | 160 µM (≈ 74.1 µg/mL) | 25 µM (≈ 11.6 µg/mL) | –
19 | Clc1ccc(-c2nn(-c3ccc(Br)cc3)cc2CCc2nnn[nH]2)cc1 | 150 µM (≈ 64.5 µg/mL) | > 50 µM | –
20 | CS(=O)(=O)NC(=O)CCc1cn(-c2ccc(C#N)cc2)nc1-c1ccc(Cl)cc1 | 75 µM (≈ 32.2 µg/mL) | 25 µM (≈ 10.7 µg/mL) | –
21 | CS(=O)(=O)NCCCc1cn(-c2ccc(Br)cc2)nc1-c1ccc(Cl)cc1 | < 5 µM | > 50 µM | –
22 | CNC(=O)CCc1cn(-c2ccc(Br)cc2)nc1-c1ccc(Cl)cc1 | < 5 µM | > 50 µM | –
23 | CS(=O)(=O)NC(=O)/C=C/c1cn(-c2ccc(Br)cc2)nc1-c1ccncc1 | 115 µM (≈ 51.4 µg/mL) | 12 µM (≈ 5.37 µg/mL) | –
24 | CS(=O)(=O)NC(=O)CCc1cn(-c2ccc(Br)cc2)nc1C1CCOCC1 | 200 µM (≈ 91.3 µg/mL) | 9.4 µM (≈ 4.29 µg/mL) | logD [3]: 0.55; Stabilty [4]: 86%; Stabilty [5]: 83%; Stabilty [6]: 77%; Fu [7]: 0.07 fraction; beta t1/2 [8]: 2.3 h; Vd [9]: 29.3 L/kg; CL free [10]: 2071 mL/min/kg; AUCt [11]: 31 µmol·min/L
25 | CS(=O)(=O)NC(=O)CCc1cn(-c2ccncc2)nc1-c1ccc(Cl)cc1 | 190 µM (≈ 76.9 µg/mL) | > 50 µM | –
26 | CS(=O)(=O)NC(=O)CCc1cn(-c2ccc(Br)cc2)nc1C1CCN(C=O)CC1 | 200 µM (≈ 96.7 µg/mL) | 50 µM (≈ 24.2 µg/mL) | –
27 | CCc1cc(C(N)=S)ccn1 [ETHIONAMIDE] | – | – | MIC [12]: 15.6 µM (≈ 2.59 µg/mL)
